Assays:
[1] = test system: Ross 708 chickens (Woody Breast); test: Woody Breast scores by manual palpation in chickens hatched from eggs incubated under controlled CO2; type: in vivo, chicken
Protocol: (§1) 900 fertilized eggs from a commonly used commercial chicken strain, Ross 708, that were less than 1 week old since being laid, and laid in the same laying facility by layers (chickens) of the same age, were split equally into three batches of 300 each. One batch, referred to as control batch, was incubated for 18 days in an atmosphere in which no additional CO2 was injected into this atmosphere from any source outside the egg. For this batch, the CO2 concentration inside the incubator varied between the CO2 concentration of the ambient atmosphere (i.e. about 409 ppm) and as high as 1,500 ppm (resulting from CO2 generation by the eggs themselves). The second batch, referred to as 4,000 ppm test CO2 batch or 0.4% CO2 test batch, was incubated for 18 days wherein the CO2 concentration in the incubator from the start of the first day through the end of the eighteenth day was maintained at 4,000 ppm (i.e. 0.4% CO2) by occasional injections of CO2 as necessary. The third batch, referred to as 10,000 ppm test CO2 batch or 1% CO2 test batch, was incubated for 18 days according to Regimen 1 described herein, wherein the CO2 concentration in the incubator from the start of the first day through the end of the eighteenth day was maintained at 10,000 ppm (i.e. 1% CO2) by occasional injections of CO2 as necessary. All three batches were incubated at approximately 100° F. and between 30% and 70% relative humidity. At the end of the eighteenth day of incubation, all three batches of eggs were transferred to hatcher equipment, where the eggs hatched over the next 3 days. No external CO2 was injected into the hatcher from any source outside the eggs for this period of 3 days. Thus, the only difference between the conditions under which the three batches were incubated was that in the control batch no additional CO2 was injected, whereas for the other two batches additional, external CO2 was injected to subject the eggs to CO2 concentrations of 4,000 ppm and 10,000 ppm respectively. During the incubation period the oxygen concentration in the control incubator was always above 20%, whereas in the 4,000 ppm and 10,000 ppm CO2 controlled incubators, the oxygen level was typically above 19%.
(§2) Once the chicks hatched, approximately 150 of the male chicks from each batch were taken to grow cages and they began to be fed water and feed. From this point onwards, there was no difference in the treatment of the birds. 28 days after hatching the chickens from each batch were weighed and then stunned. Then the birds were measured for Woody Breast scores by manual palpitation by a trained panel of experts under single-blinded conditions. Each breast was given a score of either 0, 1, 2 or 3. Score 0 means no WB was detected. Score 3 meant very high levels of WB detected and scores 1 and 2 meant intermediate levels of WB were detected.
(§3) 600 fertilized eggs from a commonly used commercial chicken strain, Ross 708, that were less than 1 week old since being laid, and laid in the same laying facility by layers (chickens) of the same age, were split equally into batches of 300 each. One batch, referred to as control batch, was incubated for 18 days in an atmosphere in which no additional CO2 was injected into this atmosphere from any source outside the egg. For this batch, the CO2 concentration inside the incubator varied between ambient atmospheric (i.e. about 409 ppm) and as high as 1,500 ppm (resulting from CO2 generation by the egg). […]

[2] = test system: fertilized Ross 708 chicken eggs; test: Percent of fertile eggs hatched at end of 21 days of incubation under controlled CO2; type: in vivo
Protocol: as §1
600 fertilized eggs from a commonly used commercial chicken strain, Ross 708, that were less than 1 week old since being laid, and laid in the same laying facility by layers (chickens) of the same age, were split equally into batches of 300 each. One batch, referred to as control batch, was incubated for 18 days in an atmosphere in which no additional CO2 was injected into this atmosphere from any source outside the egg. […]

[3] = Average bird weight at hatch and at 28 days after CO2 incubation; type: in vivo, chicken
Protocol: as §1, §2, §3

[4] = test system: Ross 708 chickens; test: Livability: percentage of hatched birds surviving to 28 days after CO2 incubation; type: in vivo, chicken; conditions: for percentage of birds that survived compared to control: 28 days
Protocol: as §1, with “No external CO2 was injected into the hatcher from any source outside the eggs for this period of 3 days. Thus, the only difference between the conditions under which the three batches were incubated was that in the control batch no additional CO2 was injected, whereas for the other two batches additional, external CO2 was injected to subject the eggs to CO2 concentrations of 4,000 ppm and 10,000 ppm respectively. During the incubation period the oxygen concentration in the control incubator was always above 20%, whereas in the 4,000 ppm and 10,000 ppm CO2 controlled incubators, the oxygen level was typically above 19%.” left out
Once the chicks hatched, approximately 150 of the male chicks from each batch were taken to grow cages and they began to be fed water and feed. […] Then the birds were measured for Woody Breast scores by manual palpitation by a trained panel of experts under single-blinded conditions. […] Score 0 means no WB was detected. Score 3 meant very high levels of WB detected and scores 1 and 2 meant intermediate levels of WB were detected. […]

[5] = Regimen 1, constant 1% CO2 for 18 days

For `O=C=O` [CO2, carbon dioxide], which “% of birds scoring 1 (Woody Breast score)” value ([1]; Regimen 1, constant 10,000 ppm (1%) CO2 for 18 days, 28 days after hatching, control 24%) is on record?
The value was 15%.

What about the “incidence of WB compared to control birds” value ([1]; Regimen 1, constant 10,000 ppm (1%) CO2 in incubator for 18 days, scored 28 days after hatching) of the same compound?
The value was “significantly reduced”.

And the “% of birds scoring 1 (Woody Breast score)” value ([1]; Regimen 2, 1% CO2 ramp up, 28 days after hatching, control 13%)?
Its value is 8%.

And the “incidence of WB compared to control birds” value ([1]; Regimen 2, CO2 ramp up in equal daily steps to 10,000 ppm (1%) on day 18, 28 days after hatching)?
The value was “significantly reduced”.

What about the “% of birds scoring 2 (Woody Breast score)” value ([1]; Regimen 3, 0.75% CO2 on-off, 28 days after hatching, control 5%) of the same compound?
Its value is 1%.

And the “% of birds scoring 1 (Woody Breast score)” value ([1]; Regimen 3, 0.75% CO2 on-off, 28 days after hatching, control 23%)?
The value was 17%.

What about the “% of birds scoring 0 (Woody Breast score)” value ([1]; Regimen 3, 0.75% CO2 on-off, 28 days after hatching, control 73%) of the same compound?
Its value is 82%.

And the “incidence of WB compared to control birds” value ([1]; Regimen 3, 7,500 ppm (0.75%) CO2 on-off on alternate 24 h periods till day 18, 28 days after hatching)?
Its value is “significantly reduced”.

And the “WB scores compared to control” value ([1]; constant 4,000 ppm (0.4%) CO2 for 18 days, 28 days after hatching)?
Its value is “higher”.

What about the “% of birds scoring 2 (Woody Breast score)” value ([1]; constant 4,000 ppm (0.4%) CO2 for 18 days, 28 days after hatching, control 1%) of the same compound?
The value was 9%.

And the “percent of fertile eggs that hatched at the end of 21 days of incubation” value (“percent of fertile eggs that hatched” for short) ([2]; Regimen 1, constant 10,000 ppm (1%) CO2 for 18 days, control 88.1%)?
Its value is 93.5%.

What about the “percent of fertile eggs that hatched” value ([2]; Regimen 2, 1% CO2 ramp up, control 91%) of the same compound?
Its value is 94.1%.

And the “percent of fertile eggs that hatched” value ([2]; Regimen 3, 0.75% CO2 on-off, control 88.7%)?
Its value is 96%.

And the “percent of fertile eggs that hatched” value ([2]; constant 4,000 ppm (0.4%) CO2 for 18 days, control 88.1%)?
Its value is 95.6%.

What about the “average final weight at 28 days, higher than control by” value [3, 5] of the same compound?
The value was “approximately 5%”.

And the “increase of average weight just after hatch vs control” value [3, 5]?
The value was “approximately 5%”.

What about the “average weight at hatch, lower than control by” value ([3]; Regimen 2, 1% CO2 ramp up) of the same compound?
Its value is “approximately 6.5%”.

And the “weight at 28 days compared to control birds” value ([3]; Regimen 2, 1% CO2 ramp up)?
Its value is “slightly heavier”.

What about the “average weight at hatch, lower than control by” value ([3]; Regimen 3, 0.75% CO2 on-off) of the same compound?
The value was “approximately 1.5%”.

What about the “weight at 28 days, heavier than control birds by” value ([3]; Regimen 3, 0.75% CO2 on-off) of the same compound?
Its value is 11%.

What about the “more hatched birds surviving to end of 28 days compared to control” value [4, 5] of the same compound?
Its value is “Approximately 4%”.

And the “percentage of birds that survived compared to control” value ([4]; Regimen 2, 1% CO2 ramp up)?
Its value is “no statistical difference”.

And the “percentage of birds that survived compared to control” value ([4]; Regimen 3, 0.75% CO2 on-off)?
Its value is “no statistical difference”.

— patent publication US20240189344A1, “METHODS USING CARBON DIOXIDE AND OXYGEN TO IMPROVE CHARACTERISTICS OF POULTRY” (priority 2022, published 2024)
